{"source": "patent US11771715B2", "about": "(Orna Therapeutics, Inc., priority 2019, dated 2023)", "molecules": {"B1": {"name": "parabovirus: \"IRES sourced from the indicated virus\" in circular RNA encoding anti-murine CD19 CAR (nucleic acid, listed as Parabovirus sp.)", "DNA": "TGAACCGTTACGCACCACTCAGTTGGTGTTTGGTGGCACCAATGATGGAACAAAAGGCTACACCACTTGGGCTACGGCCCGCGCCACCTTGTGGCGCAAAGACATTAGAAGAATAGCATACCGCCCACTAGGGCCCTGCAGCCAGCAGGGTAACGGGCAAGCACTTCTGTCTCCCCGGTAGAACGGTATAGGCTGTACCCACGGCCGAAAACTGAACTATCGTTACCCGACTCCGTACTTCGCAAAGCTTAGTAGGAAACTGGAAAGTTCGAGTTATTGACCCGGAGTGTTCCCCCCACTCCAGAAACGCGTGATGAGGGTTGCCACCCCGACCATGGCGACATGGTGGGCATCCCTGCGCTGGCACGCGGCCTCTAAGAGGATAACTCGCTCCTACTGGTAACCGAAGAGCCCCGTGAGCTACGGTTTATTCCTCCGCCTCCCTGAATGCGGCTAATCCTAACCCATGAGCAGTTGCCATAGATCCATATGGTGGACTGTCGTAACGCGTAAGTTGTGGGCGGAACCGACTACTTTGGGATGGCGTGTTTCCTTGTTTTCTCCATTTGTTGTTGTATGGTGACAAGTTATAGATCTCGATCTATAGCGTTTCTTGAGAGATTTCCAAACATTTATTCAAGTCGTACAATTCTTGTGTTTAAGCAGTACAGTGTAAGG"}, "B2": {"name": "Crohivirus B IRES: one of the \"selected IRES sequences\" modified (e.g., truncated); \"SEQ ID NOs: 348-389\" (nucleic acid)", "DNA": "GTATAAGAGACAGGTGTTTGCCTTGTCTTCGGACTGGCATCTTGGGACCAACCCCCCTTTTCCCCAGCCATGGGTTAAATGGCAATAAAGGACGTAACAACTTTGTAACCATTAAGCTTTGTAATTTTGTAACCACTAAGCTTTGTGCACATAATGTAACCATCAAGCTTGTTAGTCCCAGCAGGAGGTTTGCATGCTTGTAGCCGAAATGGGGCTCGACCCCCCATAGTAGGATACTTGATTTTGCATTCCATTGTGGACCTGCAAACTCTACACATAGAGGCTTTGTCTTGCATCTAAACACCTGAGTACAGTGTGTACCTAGACCCTATAGTACGGGAGGACCGTTTGTTTCCTCAATAACCCTACATAATAGGCTAGGTGGGCATGCCCAATTTGCAAGATCCCAGACTGGGGGTCGGTCTGGGCAGGGTTAGATCCCTGTTAGCTACTGCCTGATAGGGTGGTGCTCAACCATGTGTAGTTTAAATTGAGCTGTTCATATACC", "modifications": "Crohivirus B"}, "B3": {"name": "Salivirus A SZ-1 (nucleic acid)", "DNA": "TCTGTCCTCACCCCATCTTCCCTTCTTTCCTGCACCGTTACGCTTACTCGCATGTGCATTGAGTGGTGCACGTGCTTGAACAAACAGCTACACTCACATGGGGGCGGGTTTTCCCGCCCTGCGGCCTCTCGCGAGGCCCACCCCTCCCCTTCCTCCCATAACTACAGTGCTTTGGTAGGTAAGCATCCTGATCCCCCGCGGAAGCTGCTCACGTGGCAACTGTGGGGACCCAGACAGGTTATCAAAGGCACCCGGTCTTTCCGCCTTCAGGAGTATCCCTGCTAGTGAATTCTAGTAGGGCTCTGCTTGGTGCCAACCTCCCCCAAATGCGCGCTGCGGGAGTGCTCTTCCCCAACTCACCCTAGTATCCTCTCATGTGTGTGCTTGGTCAGCATATCTGAGACGATGTTCCGCTGTCCCAGACCAGTCCAGTAATGGACGGGCCAGTGTGCGTAGTCGTCTTCCGGCTTGTCCGGCGCATGTTTGGTGAACCGGTGGGGTAAGGTTGGTGTGCCCAACGCCCGTACTTTGGTGATACCTCAAGACCACCCAGGAATGCCAGGGAGGTACCCCGCTTCACAGCGGGATCTGACCCTGGGCTAATTGTCTACGGTGGTTCTTCTTGCTTCCACTTCTTTCTACTGTTCATG"}}, "key": {"[1]": {"conditions": "Table 3, representative compounds of Formula (III); cited from earlier work"}, "[2]": {"system": "1C1C7 cells", "test": "5′ UTR variants in 1C1C7 cells (Ex. 54)", "format": "cell-based", "conditions": "CK IRES with 5′ UTR variants", "from_the_text": "This example describes modifications of circular RNAs by inserting 5′ UTR variants. […] 1C1C7 cells were transfected with the circular RNAs."}, "[3]": {"system": "1C1C7 cells", "test": "Expression of anti-murine CD19 CAR by IRES variant in lipotransfected 1C1C7 cells (Ex. 41)", "format": "cell-based", "conditions": "24 hours after lipotransfection", "procedure": "After 24 hours, 1C1C7 cells were incubated with His-tagged recombinant murine CD19 (Sino Biological) protein, then stained with a secondary anti-His antibody. Afterwards, the cells were analyzed via flow cytometry."}, "[4]": {"system": "HEK293 cells", "test": "GLuc luminescence by IRES in HEK293 cells (Ex. 8A)", "conditions": "24 hours, 100 ng circularization reaction"}, "[5]": {"system": "1C1C7 cells", "test": "GLuc luminescence and functional stability by IRES in 1C1C7 cells (Ex. 8A)", "conditions": "24 hours"}}, "data": [{"molecule": "CCCCCCCCCCCCC(CCCCCCCCCC)C(=O)OCCCCCCN(CCCCO)CCCCOC(=O)C(CCCCCCCCCC)CCCCCCCCCCCC", "note": "(stereo not drawn) [III-27]", "values": [{"measurement": "pKa", "setting": "[1]", "result": 5.77}]}, {"molecule": "UTR2: 5′ UTR variant: canonical Kozak with \"a 36-nucleotide unstructured/low GC spacer sequence\" added (DNA AATAAGAGAGAAAAGAAGAGTAAGAAGAAATATAAGAGCCACC; expressed or natural sequence)", "values": [{"measurement": "translation, luminescence", "setting": "[2]", "result": "more effective"}]}, {"molecule": "UTR3: 5′ UTR variant: \"a higher-GC/structured spacer with a kozak sequence\" (DNA CGAACTAGTATTCTTCTGGTCCCCACAGACTCAGAGAGAACCCGCCACC; expressed or natural sequence)", "values": [{"measurement": "translation, luminescence", "setting": "[2]", "result": "did not show the same benefit"}]}, {"molecule": "B1", "values": [{"measurement": "expression of anti-mouse CD19 CAR", "setting": "[3]", "result": "capable of driving expression"}]}, {"molecule": "B2", "values": [{"measurement": "luminescence in supernatant", "setting": "[4]", "result": "produced the highest luminescence"}]}, {"molecule": "B3", "values": [{"measurement": "luminescence in supernatant", "setting": "[5]", "result": "produced high luminescence"}]}]}
